From ChEMBL document CHEMBL1136340, “Indole-2-carboxamides as novel NR2B selective NMDA receptor antagonists” (Bioorg Med Chem Lett, 2003)

Assays:
[1] = target: Glutamate NMDA receptor; GRIN1/GRIN2B (Homo sapiens, UniProt Q05586+Q13224); experiment: Inhibition of N-methyl-D-aspartate glutamate receptor-evoked increase of intracellular Ca+ in cells expressing NMDA glutamate receptor 1/2B; type: functional, cell-based
[2] = target: Glutamate [NMDA] receptor; experiment: Inhibition of [3H]Ro-256981 binding to N-methyl-D-aspartate glutamate receptor; type: protein-complex assay

Chain of Glutamate NMDA receptor; GRIN1/GRIN2B (Q13224 whole entry, other chains not shown): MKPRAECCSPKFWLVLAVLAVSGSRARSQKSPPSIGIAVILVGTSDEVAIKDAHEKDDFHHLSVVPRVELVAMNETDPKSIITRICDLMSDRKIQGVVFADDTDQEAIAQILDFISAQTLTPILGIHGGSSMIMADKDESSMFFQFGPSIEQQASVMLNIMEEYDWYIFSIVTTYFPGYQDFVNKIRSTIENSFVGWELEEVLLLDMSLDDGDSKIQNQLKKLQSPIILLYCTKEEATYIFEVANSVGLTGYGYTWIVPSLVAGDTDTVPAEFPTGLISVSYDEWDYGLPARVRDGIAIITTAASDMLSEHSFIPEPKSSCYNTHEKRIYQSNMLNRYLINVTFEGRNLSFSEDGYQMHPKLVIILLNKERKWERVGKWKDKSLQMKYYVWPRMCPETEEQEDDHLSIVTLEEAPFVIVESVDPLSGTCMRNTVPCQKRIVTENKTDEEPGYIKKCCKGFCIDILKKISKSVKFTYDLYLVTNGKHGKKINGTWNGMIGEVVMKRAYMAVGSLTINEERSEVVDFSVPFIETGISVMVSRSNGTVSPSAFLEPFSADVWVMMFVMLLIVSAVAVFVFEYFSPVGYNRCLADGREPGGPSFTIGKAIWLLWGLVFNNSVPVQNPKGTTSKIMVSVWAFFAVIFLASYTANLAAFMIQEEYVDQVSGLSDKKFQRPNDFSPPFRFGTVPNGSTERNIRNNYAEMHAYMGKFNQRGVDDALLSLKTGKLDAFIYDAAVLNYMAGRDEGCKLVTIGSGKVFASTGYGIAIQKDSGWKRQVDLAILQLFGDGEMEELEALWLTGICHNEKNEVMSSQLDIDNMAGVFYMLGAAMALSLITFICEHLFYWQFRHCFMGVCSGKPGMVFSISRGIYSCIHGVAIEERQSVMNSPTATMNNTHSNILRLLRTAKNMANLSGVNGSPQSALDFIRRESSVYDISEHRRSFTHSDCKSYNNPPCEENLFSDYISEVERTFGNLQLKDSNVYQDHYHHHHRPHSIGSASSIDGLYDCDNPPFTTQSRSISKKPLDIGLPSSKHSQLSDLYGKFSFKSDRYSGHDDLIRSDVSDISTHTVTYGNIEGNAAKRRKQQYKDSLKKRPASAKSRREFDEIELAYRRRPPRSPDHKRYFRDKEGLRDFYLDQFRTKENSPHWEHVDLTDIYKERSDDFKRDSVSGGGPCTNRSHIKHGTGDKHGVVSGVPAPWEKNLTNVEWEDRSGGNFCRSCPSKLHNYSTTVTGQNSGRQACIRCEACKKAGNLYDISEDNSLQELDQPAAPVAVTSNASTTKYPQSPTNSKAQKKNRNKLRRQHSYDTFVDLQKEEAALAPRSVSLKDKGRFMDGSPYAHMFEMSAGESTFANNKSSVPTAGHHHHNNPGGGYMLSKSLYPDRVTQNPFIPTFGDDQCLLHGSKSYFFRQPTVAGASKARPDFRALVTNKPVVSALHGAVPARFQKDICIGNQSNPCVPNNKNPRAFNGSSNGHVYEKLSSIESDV

| Structure (SMILES) | IC50 [1] [nM] | IC50 [2] [nM] |
| --- | --- | --- |
| O=C(/C=C/c1ccc(O)cc1)N1CCC(Cc2ccccc2)CC1 | 104 | 196 |
| O=C(c1cc2cccc(O)c2[nH]1)N1CCC(Cc2ccccc2)CC1 | 77 | 380 |
| O=C(c1cc2cc(O)cc(O)c2[nH]1)N1CCC(Cc2ccccc2)CC1 | 52 | 106 |
| O=C(c1cc2c(O)cccc2[nH]1)N1CCC(Cc2ccccc2)CC1 | 39 | 18 |
| O=C(c1cc2cc(O)ccc2[nH]1)N1CCC(Cc2ccccc2)CC1 | 40 | 31 |
| O=C(c1cc2c(O)cc(O)cc2[nH]1)N1CCC(Cc2ccccc2)CC1 | 10 | 6 |
| C[C@@H](CN1CCC(Cc2ccccc2)CC1)[C@@H](O)c1ccc(O)cc1 | 57 | 6 |
| O=C(c1cc2ccc(O)cc2[nH]1)N1CCC(Cc2ccccc2)CC1 | 20 | 12 |
| O=C(c1cc2ccc(O)cc2[nH]1)N1CCC(c2ccccc2)CC1 | > 8000 | – |
| O=C(c1cc2ccc(O)cc2[nH]1)N1CCC(CCc2ccccc2)CC1 | 24 | 359 |
| O=C(c1cc2ccc(O)cc2[nH]1)N1CCC(OCc2ccccc2)CC1 | 46 | 47 |
| O=c1[nH]c2ccc([S+]([O-])CCN3CCC(Cc4ccc(F)cc4)CC3)cc2o1 (stereo not drawn) [BESONPRODIL] | 8 | 4 |
